From ChEMBL document CHEMBL4813966, “Discovery of 3,6-disubstutited-imidazo[1,2-a]pyridine derivatives as a new class of CLK1 inhibitors” (Bioorg Med Chem Lett, 2021)
Activity calls are given as the source filed them. The rule behind the calls is not given here.

Legend:
[1] = target: T1, Dual specificity protein kinase CLK1 (Homo sapiens, UniProt P49759); assay: Inhibition of recombinant human CLK1 (130 to end residues) using ERMRPRKRQGSVR as substrate incubated for 40 mins in presence of [gamma-33ATP] by scintillation counting based radiometry assay
Target sequence in this assay (P49759 whole entry): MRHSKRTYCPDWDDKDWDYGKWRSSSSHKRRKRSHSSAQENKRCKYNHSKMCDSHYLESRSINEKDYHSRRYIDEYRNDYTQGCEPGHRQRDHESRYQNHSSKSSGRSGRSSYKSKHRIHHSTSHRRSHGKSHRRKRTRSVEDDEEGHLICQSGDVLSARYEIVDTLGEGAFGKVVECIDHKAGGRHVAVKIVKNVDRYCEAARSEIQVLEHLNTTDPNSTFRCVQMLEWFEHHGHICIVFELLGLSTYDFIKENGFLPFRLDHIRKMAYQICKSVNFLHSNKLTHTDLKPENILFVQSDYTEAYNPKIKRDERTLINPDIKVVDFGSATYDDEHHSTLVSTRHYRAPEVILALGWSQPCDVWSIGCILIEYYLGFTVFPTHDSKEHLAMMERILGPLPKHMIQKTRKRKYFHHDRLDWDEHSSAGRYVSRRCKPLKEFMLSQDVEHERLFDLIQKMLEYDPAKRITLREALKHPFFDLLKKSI

[2] = target: Dual specificity protein kinase CLK3 (Homo sapiens, UniProt P49761); assay: Inhibition of recombinant full length human CLK3 using ERMRPRKRQGSVR as substrate incubated for 40 mins in presence of [gamma-33ATP] by scintillation counting based radiometry assay
[3] = target: Dual specificity tyrosine-phosphorylation-regulated kinase 1B (Homo sapiens, UniProt Q9Y463); assay: Inhibition of recombinant full length human DYRK1B using RRRFRPASPLRGPPK as substrate incubated for 40 mins in presence of [gamma-33ATP] by scintillation counting based radiometry assay
[4] = target: T1, Dual specificity protein kinase CLK1; assay: Inhibition of CLK1 in human SKOV-3 cells assessed as decrease in SRp75 phosphorylation after 24 hrs by Western blot analysis; type: cell-based; conditions: SK-OV-3, dose 0.33-30 µM
Target sequence in this assay (P49759 whole entry, looked up): as the sequence (P49759 whole entry) above

SK-OV-3 [5] = assay: Induction of autophagy in human SKOV-3 cells assessed as degradation of SQSTM1/p62 at 0.33 to 30 uM measured after 24 hrs by Western blot analysis; type: functional, cell-based; conditions: dose 0.33-30 µM
SK-OV-3 [6] = assay: Induction of autophagy in human SKOV-3 cells assessed as increase in LC3-II protein level incubated for 24 hrs by Western blot analysis; type: functional, cell-based; conditions: dose 0.33-30 µM
SK-OV-3 [7] = assay: Induction of autophagy in human SKOV-3 cells transfected with Ad-mRFP-GFP-LC3 assessed as induction of autolysosomes formation by measuring increase in number of red LC3 puncta at 0.1 uM measured after 24 hrs by confocal microscopic analysis; type: functional, cell-based
SK-OV-3 [8] = assay: Induction of autophagic flux in human SKOV-3 cells assessed as LC3-II protein level at 10 uM after 24 hrs in presence of V-ATPase inhibitor bafilomycin-A1 by Western blot analysis; type: functional, cell-based
[9] = target: T1, Dual specificity protein kinase CLK1; assay: Inhibition of CLK1 in human SKOV-3 cells assessed as redistribution of SR protein from nucleoplasm to nuclear speckles at 0.1 uM after 24 hrs by immunofluorescence assay; type: cell-based; conditions: SK-OV-3
Target sequence in this assay (P49759 whole entry, looked up): as the sequence (P49759 whole entry) above

[10] = target: T1, Dual specificity protein kinase CLK1; assay: Inhibition of CLK1 in human SKOV-3 cells assessed as decrease in SRp55 phosphorylation after 24 hrs by Western blot analysis; type: cell-based; conditions: SK-OV-3, dose 0.33-30 µM
Target sequence in this assay (P49759 whole entry, looked up): as the sequence (P49759 whole entry) above

[11] = target: Dual specificity protein kinase CLK4 (Homo sapiens, UniProt Q9HAZ1); assay: Inhibition of recombinant human CLK4 (128 to end residues) using YRRAAVPPSPSLSRHSSPHQS(p)EDEEE as substrate incubated for 40 mins in presence of [gamma-33ATP] by scintillation counting based radiometry assay
[12] = target: Dual specificity protein kinase CLK2 (Homo sapiens, UniProt P49760); assay: Inhibition of recombinant human CLK2 (138 to end residues) using YRRAAVPPSPSLSRHSSPHQS(p)EDEEE as substrate incubated for 40 mins in presence of [gamma-33ATP] by scintillation counting based radiometry assay
[13] = target: Dual specificity tyrosine-phosphorylation-regulated kinase 1A (Homo sapiens, UniProt Q13627); assay: Inhibition of recombinant full length human DYRK1A using RRRFRPASPLRGPPK as substrate incubated for 40 mins in presence of [gamma-33ATP] by scintillation counting based radiometry assay
SK-OV-3 [14] = assay: Induction of autophagy in human SKOV-3 cells assessed as increase in LC3-II to LC3-I ratio incubated for 24 hrs by Western blot analysis; type: functional, cell-based; conditions: dose 0.33-30 µM
SK-OV-3 [15] = assay: Induction of autophagy in human SKOV-3 cells transfected with Ad-mRFP-GFP-LC3 assessed as induction of autophagosomes formation by measuring increase in number of yellow LC3 puncta at 0.1 uM measured after 24 hrs by confocal microscopic analysis; type: functional, cell-based
SK-OV-3 [16] = assay: Induction of autophagic flux in human SKOV-3 cells assessed as SQSTM1/p62 protein level at 10 uM after 24 hrs in presence of V-ATPase inhibitor bafilomycin-A1 by Western blot analysis; type: functional, cell-based

Dual specificity tyrosine-phosphorylation-regulated kinase 1B, sequence (Q9Y463 whole entry): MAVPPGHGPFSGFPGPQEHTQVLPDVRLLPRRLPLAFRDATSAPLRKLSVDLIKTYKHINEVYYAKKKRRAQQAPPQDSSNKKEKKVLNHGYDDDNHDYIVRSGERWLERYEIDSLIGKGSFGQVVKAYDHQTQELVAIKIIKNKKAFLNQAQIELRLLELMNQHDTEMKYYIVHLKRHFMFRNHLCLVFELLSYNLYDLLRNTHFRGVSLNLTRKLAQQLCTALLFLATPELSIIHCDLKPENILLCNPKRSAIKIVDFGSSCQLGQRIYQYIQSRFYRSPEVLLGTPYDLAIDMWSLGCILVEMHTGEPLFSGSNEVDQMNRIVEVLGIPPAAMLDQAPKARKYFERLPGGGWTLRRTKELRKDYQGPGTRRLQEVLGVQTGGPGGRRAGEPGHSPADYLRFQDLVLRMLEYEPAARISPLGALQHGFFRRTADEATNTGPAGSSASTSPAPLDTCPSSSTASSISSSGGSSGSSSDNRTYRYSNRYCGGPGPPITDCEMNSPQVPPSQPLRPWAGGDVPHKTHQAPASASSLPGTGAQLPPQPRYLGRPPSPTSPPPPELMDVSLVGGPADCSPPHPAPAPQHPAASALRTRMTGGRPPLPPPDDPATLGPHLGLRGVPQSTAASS
Dual specificity protein kinase CLK4, sequence (Q9HAZ1 whole entry): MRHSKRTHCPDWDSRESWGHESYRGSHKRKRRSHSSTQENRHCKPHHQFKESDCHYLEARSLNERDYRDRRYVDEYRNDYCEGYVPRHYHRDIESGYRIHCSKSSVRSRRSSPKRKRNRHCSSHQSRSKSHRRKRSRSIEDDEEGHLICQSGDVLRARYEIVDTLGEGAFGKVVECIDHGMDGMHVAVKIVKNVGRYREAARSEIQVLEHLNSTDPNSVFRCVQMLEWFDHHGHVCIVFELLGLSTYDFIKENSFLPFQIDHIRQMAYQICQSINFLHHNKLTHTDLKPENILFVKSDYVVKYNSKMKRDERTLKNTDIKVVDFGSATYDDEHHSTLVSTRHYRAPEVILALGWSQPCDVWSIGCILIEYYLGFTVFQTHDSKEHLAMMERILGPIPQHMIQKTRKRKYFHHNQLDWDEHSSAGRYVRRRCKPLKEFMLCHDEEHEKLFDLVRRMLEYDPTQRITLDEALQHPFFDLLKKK
Dual specificity protein kinase CLK3, sequence (P49761 whole entry): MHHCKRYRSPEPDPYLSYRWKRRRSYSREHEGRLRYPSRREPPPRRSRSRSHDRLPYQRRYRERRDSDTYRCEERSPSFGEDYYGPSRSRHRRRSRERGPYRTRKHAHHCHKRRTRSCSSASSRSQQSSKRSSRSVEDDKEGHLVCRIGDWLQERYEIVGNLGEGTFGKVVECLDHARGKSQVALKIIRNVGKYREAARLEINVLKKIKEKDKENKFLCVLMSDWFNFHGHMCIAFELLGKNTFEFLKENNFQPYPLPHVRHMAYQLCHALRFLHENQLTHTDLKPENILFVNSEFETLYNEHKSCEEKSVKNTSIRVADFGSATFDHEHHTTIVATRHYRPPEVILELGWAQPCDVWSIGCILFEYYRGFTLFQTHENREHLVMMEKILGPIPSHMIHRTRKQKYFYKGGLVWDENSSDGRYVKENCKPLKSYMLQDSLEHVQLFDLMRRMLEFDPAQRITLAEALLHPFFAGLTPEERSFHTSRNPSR
Dual specificity protein kinase CLK2, sequence (P49760 whole entry): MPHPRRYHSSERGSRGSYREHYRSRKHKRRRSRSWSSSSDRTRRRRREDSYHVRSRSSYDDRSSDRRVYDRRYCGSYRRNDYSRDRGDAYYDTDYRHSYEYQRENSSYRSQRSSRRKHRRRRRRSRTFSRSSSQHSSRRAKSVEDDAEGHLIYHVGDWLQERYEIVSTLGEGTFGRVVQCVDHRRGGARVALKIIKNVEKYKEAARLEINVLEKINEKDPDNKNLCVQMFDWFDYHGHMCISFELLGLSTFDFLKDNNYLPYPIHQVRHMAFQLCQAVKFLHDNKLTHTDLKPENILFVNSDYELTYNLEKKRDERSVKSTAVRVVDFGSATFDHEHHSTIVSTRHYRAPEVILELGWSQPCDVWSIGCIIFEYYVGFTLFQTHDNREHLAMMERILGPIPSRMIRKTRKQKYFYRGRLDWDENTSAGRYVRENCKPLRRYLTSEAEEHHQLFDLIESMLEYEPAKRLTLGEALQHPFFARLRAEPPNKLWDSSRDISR

Structure (SMILES) | IC50 [1] | further results
C[C@H](NC(=O)c1cnc2ccc(-c3cnn(C)c3)cn12)c1ccc(Cl)cc1 | 0.399 µM | 
Cn1cc(-c2ccc3ncc(C(=O)NCc4ccc(Cl)cc4)n3c2)cn1 | 0.014 µM | 
COc1cccc(CNC(=O)c2cnc3ccc(-c4cnn(C)c4)cn23)c1 | 0.011 µM | 
COc1ccc(CNC(=O)c2cnc3ccc(-c4ccncc4)cn23)cc1 | 0.013 µM | 
COc1ccc(NNC(=O)c2cnc3ccc(-c4ccc5ncccc5c4)cn23)cc1 | 0.005 µM | 
COc1ccc(CNC(=O)c2cnc3ccc(-c4ccc5ocnc5c4)cn23)cc1 | 0.122 µM | 
COc1ccc([C@H](C)NC(=O)c2cnc3ccc(-c4ccc5ncccc5c4)cn23)cc1 | 0.044 µM | 
COc1ccc(CNC(=O)c2cnc3ccc(-c4ccc5ccccc5c4)cn23)cc1 | > 10 µM | 
Cn1cc(-c2ccc3ncc(C(=O)NCc4ccccc4)n3c2)cn1 | 0.012 µM | 
COc1ccc(CNC(=O)c2cnc3ccc(-c4cnn(C)c4)cn23)cc1 | 0.006 µM | 
C[C@H](NC(=O)c1cnc2ccc(-c3cnn(C)c3)cn12)c1ccccc1 | 0.296 µM | 
COc1ccc(NC(=O)c2cnc3ccc(-c4cnn(C)c4)cn23)cc1 | 0.007 µM | 
CC(C)Oc1ccc(CNC(=O)c2cnc3ccc(-c4cnn(C)c4)cn23)cc1 | 0.008 µM | 
COc1ccc(CNC(=O)c2cnc3ccc(-c4ccc5ncccc5c4)cn23)cc1 | 0.004 µM | IC50 [2]: > 10 µM; IC50 [3]: 0.148 µM; inhibition [4]: Dose-Dependent Effect; Activity (SK-OV-3 [5]): Active; Activity (SK-OV-3 [6]): Dose-Dependent Effect; Activity (SK-OV-3 [7]): Active; Activity (SK-OV-3 [8]): inactive; inhibition [9]: Active; inhibition [10]: Dose-Dependent Effect; IC50 [11]: 0.017 µM; IC50 [12]: 0.05 µM; IC50 [13]: 0.01 µM; Activity (SK-OV-3 [14]): Dose-Dependent Effect; Activity (SK-OV-3 [15]): Active; Activity (SK-OV-3 [16]): inactive
C[C@@H](NC(=O)c1cnc2ccc(-c3cnn(C)c3)cn12)c1ccc(Cl)cc1 | 0.011 µM | 
COc1ccc(CNC(=O)c2cnc3ccc(-c4c(C)noc4C)cn23)cc1 | > 10 µM | 
CNC(=O)c1cnc2ccc(-c3cnn(C)c3)cn12 | 0.023 µM | 
C[C@@H](NC(=O)c1cnc2ccc(-c3ccc4ncccc4c3)cn12)c1ccccc1 | 0.006 µM | 
COc1ccc([C@@H](C)NC(=O)c2cnc3ccc(-c4ccc5ncccc5c4)cn23)cc1 | 0.006 µM | 
COc1ccc([C@H](C)NC(=O)c2cnc3ccc(-c4cnn(C)c4)cn23)cc1 | 0.809 µM | 
COc1ccc([C@@H](C)NC(=O)c2cnc3ccc(-c4cnn(C)c4)cn23)cc1 | 0.008 µM | 
C[C@H](NC(=O)c1cnc2ccc(-c3ccc4ncccc4c3)cn12)c1ccccc1 | 0.052 µM | 
C[C@@H](NC(=O)c1cnc2ccc(-c3cnn(C)c3)cn12)c1ccccc1 | 0.014 µM | 
